ChEMBL document CHEMBL1122963, “[3H]Batrachotoxinin A 20 alpha-benzoate binding to voltage-sensitive sodium channels: a rapid and quantitative assay for local anesthetic activity in a variety of drugs” (J Med Chem, 1985)

Legend:
[1] = biological target: T1, Sodium channel alpha subunits; brain (Types I, II, III) (Homo sapiens, UniProt P35498+Q99250+Q9NY46); details: Cavia porcellus; Cerebral cortex; at 10 µM
[2] = biological target: T1, Sodium channel alpha subunits; brain (Types I, II, III); details: Cavia porcellus; Cerebral cortex; at 100 µM
[3] = biological target: T1, Sodium channel alpha subunits; brain (Types I, II, III); assay: Inhibition of binding of Batrachotoxinin [3H]BTX-B to high affinity sites on voltage dependent sodium channels in a vesicular preparation from guinea pig cerebral cortex; format: tissue-based, Cavia porcellus
[4] = biological target: T1, Sodium channel alpha subunits; brain (Types I, II, III); details: Cavia porcellus; Cerebral cortex; at 10 µM; remark: listed apart in the source

T1 sequence (Q99250 whole entry, looked up, other chains not shown): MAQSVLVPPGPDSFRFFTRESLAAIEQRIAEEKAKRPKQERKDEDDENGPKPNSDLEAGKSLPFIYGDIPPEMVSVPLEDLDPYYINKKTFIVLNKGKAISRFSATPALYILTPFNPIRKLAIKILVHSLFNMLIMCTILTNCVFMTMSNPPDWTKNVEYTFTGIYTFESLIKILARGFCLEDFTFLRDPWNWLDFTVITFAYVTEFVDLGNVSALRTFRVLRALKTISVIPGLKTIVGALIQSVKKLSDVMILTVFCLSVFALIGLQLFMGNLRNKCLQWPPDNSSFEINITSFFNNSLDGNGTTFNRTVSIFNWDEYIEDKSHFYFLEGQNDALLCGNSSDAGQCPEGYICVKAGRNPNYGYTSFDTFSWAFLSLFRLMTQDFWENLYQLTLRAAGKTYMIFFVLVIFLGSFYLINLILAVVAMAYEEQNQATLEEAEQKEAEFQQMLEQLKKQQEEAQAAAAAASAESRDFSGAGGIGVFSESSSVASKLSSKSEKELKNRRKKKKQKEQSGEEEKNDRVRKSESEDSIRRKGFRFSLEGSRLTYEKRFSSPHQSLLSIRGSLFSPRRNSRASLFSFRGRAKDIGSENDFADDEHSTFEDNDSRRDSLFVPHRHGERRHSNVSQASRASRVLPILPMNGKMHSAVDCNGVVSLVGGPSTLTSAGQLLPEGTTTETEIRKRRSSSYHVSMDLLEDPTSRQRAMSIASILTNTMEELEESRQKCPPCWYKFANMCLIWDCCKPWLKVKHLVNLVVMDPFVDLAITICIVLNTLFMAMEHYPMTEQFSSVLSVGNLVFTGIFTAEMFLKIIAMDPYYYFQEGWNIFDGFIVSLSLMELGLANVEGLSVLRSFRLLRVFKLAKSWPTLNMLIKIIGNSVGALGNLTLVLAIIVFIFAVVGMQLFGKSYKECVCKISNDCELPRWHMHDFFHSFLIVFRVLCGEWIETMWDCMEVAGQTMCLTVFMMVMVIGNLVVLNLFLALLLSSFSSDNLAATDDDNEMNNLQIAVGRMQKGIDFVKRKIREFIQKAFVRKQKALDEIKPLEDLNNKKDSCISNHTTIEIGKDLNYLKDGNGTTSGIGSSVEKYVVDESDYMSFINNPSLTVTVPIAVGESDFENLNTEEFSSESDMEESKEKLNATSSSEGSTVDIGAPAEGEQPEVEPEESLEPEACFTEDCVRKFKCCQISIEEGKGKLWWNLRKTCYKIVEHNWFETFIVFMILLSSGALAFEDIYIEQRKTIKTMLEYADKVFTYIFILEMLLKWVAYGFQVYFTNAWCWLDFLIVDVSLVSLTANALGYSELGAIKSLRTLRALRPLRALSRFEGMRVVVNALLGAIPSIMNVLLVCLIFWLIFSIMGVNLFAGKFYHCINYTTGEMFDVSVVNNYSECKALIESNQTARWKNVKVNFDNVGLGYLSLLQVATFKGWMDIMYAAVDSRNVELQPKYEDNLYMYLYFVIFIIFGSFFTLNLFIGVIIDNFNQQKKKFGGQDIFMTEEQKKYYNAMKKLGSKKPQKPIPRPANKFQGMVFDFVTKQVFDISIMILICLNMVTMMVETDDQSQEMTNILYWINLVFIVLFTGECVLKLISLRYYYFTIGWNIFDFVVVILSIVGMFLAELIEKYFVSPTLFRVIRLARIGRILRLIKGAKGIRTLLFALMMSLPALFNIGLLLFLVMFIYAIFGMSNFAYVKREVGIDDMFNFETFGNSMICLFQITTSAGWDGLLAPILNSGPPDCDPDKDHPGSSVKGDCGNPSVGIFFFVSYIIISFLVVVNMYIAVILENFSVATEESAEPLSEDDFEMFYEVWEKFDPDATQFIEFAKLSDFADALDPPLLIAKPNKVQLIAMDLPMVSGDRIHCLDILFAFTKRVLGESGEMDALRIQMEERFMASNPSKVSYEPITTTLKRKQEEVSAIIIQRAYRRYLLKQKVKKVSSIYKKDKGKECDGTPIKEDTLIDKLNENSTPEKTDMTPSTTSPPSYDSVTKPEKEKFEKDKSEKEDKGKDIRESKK
T1 sequence (Q9NY46 whole entry, looked up, other chains not shown): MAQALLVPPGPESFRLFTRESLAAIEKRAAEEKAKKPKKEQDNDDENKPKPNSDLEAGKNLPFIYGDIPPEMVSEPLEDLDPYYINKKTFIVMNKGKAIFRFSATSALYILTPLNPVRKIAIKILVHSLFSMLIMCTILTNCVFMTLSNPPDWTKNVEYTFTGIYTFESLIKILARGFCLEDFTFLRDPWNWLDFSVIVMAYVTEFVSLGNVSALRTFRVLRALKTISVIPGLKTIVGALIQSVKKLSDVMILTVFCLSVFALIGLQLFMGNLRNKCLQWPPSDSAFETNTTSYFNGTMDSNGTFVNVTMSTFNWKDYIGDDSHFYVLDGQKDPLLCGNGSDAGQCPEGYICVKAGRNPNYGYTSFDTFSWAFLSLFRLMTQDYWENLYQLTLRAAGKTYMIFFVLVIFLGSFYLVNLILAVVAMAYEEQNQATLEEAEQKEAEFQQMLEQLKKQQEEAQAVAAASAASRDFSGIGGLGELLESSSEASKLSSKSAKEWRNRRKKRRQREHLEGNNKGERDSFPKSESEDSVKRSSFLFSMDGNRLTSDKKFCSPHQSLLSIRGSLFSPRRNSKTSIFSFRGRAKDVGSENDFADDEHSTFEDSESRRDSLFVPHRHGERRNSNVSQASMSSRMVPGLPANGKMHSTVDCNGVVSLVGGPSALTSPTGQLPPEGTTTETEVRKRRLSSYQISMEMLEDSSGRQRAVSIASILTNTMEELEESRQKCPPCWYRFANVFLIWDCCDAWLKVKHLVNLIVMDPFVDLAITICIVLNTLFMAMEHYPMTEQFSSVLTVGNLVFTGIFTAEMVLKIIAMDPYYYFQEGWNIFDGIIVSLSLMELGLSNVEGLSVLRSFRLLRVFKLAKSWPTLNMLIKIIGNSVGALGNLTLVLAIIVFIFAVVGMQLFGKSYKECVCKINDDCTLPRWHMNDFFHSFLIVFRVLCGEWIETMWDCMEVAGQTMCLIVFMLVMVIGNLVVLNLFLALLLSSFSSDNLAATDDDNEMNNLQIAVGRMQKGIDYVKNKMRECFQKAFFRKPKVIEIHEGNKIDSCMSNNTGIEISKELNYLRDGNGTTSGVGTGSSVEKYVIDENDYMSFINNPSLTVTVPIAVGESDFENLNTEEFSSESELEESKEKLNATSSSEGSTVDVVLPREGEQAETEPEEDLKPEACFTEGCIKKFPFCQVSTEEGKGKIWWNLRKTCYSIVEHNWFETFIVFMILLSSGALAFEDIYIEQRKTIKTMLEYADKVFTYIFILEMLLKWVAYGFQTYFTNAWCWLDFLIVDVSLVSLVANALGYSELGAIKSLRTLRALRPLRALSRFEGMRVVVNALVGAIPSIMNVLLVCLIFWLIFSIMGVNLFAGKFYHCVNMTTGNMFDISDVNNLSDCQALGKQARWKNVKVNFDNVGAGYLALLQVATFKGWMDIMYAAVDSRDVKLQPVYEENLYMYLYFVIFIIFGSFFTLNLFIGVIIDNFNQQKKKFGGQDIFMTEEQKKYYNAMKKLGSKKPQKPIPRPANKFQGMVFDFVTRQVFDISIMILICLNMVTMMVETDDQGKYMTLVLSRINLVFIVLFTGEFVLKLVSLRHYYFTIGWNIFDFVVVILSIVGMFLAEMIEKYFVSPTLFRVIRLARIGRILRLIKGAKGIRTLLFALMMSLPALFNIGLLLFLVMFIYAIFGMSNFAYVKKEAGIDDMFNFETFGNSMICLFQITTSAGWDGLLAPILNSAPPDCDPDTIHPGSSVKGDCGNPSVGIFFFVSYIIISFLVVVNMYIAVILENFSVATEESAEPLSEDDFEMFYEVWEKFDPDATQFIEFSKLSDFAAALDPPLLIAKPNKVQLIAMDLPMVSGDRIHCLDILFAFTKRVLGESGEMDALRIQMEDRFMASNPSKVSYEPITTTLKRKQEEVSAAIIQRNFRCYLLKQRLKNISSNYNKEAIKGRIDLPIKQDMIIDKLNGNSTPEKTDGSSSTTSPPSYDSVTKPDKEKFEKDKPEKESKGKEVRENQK

Row | SMILES | inhibition [1] | inhibition [2] | IC50 [3] | inhibition [4]
1 | COc1ccc(C2CNC(=O)C2)cc1OC1CCCC1 (stereo not given) | 3.1% | 8.5% | – | –
2 | CCN(CC)CC(=O)Nc1c(C)cccc1C | 9.8% | 31.4% | – | –
3 | C=C[C@@]1(C)CC(=O)[C@]2(O)[C@@]3(C)[C@@H](O)CCC(C)(C)[C@@H]3[C@H](O)[C@H](OC(C)=O)[C@@]2(C)O1 [COLFORSIN] | – | 62.8% | 60 µM | –
4 | CC[C@@H](CO)NC(=O)[C@@H]1C=C2c3cccc4c3c(cn4C)C[C@H]2N(C)C1 | – | 17.8% | – | –
5 | Cn1c(=O)c2nc(-c3ccc(S(=O)(=O)O)cc3)[nH]c2n(C)c1=O | 1.6% | 2.9% | – | –
6 | CCCC(C)C1(CC)C(=O)NC(=O)NC1=O (stereo not given) | 1.2% | 7.6% | – | –
7 | COc1ccc(C2C(=O)c3ccccc3C2=O)cc1 | 1.3% | 0% | – | –
8 | CCCNC(C)C(=O)Nc1ccccc1C (stereo not given) [PRILOCAINE] | 14.2% | 58.5% | 54 µM | –
9 | CCCCOC(=O)c1ccc(N)cc1 | 7% | 36.8% | – | –
10 | CNC1=Nc2ccc(Cl)cc2C(c2ccccc2)=[N+]([O-])C1 | 4.4% | 35% | – | –
11 | O=c1n(CCCN2CCN(c3cccc(Cl)c3)CC2)nc2ccccn12 | 26.2% | 79.6% | – | –
12 | CN1C(=O)CN=C(c2ccccc2)c2cc(Cl)ccc21 | 15.2% | 45.4% | – | –
13 | CN1CCc2cc3c(cc2[C@H]1[C@@H]1OC(=O)c2c1ccc1c2OCO1)OCO3 | – | 1.8% | – | –
14 | CN/C(=N\CCSCc1nc[nH]c1C)NC#N | 0% | 4.1% | – | –
15 | CN1CC[C@]23c4c5ccc(O)c4O[C@H]2[C@@H](O)C=C[C@H]3[C@H]1C5 | – | 5.3% | – | –
16 | CCOC(=O)c1cnc2c(cnn2CC)c1NN=C(C)C | 8.3% | 20.1% | – | –
17 | CC1CCCC[N+]1(C)CCCOC(=O)c1ccccc1.[I-] (stereo not given) | 9.6% | 31.4% | 360 µM | –
18 | COc1ccc(CN(CCN(C)C)c2nccs2)cc1 [ZOLAMINE] | 35.9% | 82.4% | 19.2 µM | –
19 | C[C@@H]1O[C@H](n2cnc3c(N)ncnc32)C[C@H]1O | – | 3.5% | – | –
20 | CCCNC(C)C(=O)Nc1c(C)csc1C(=O)OC (stereo not given) [ARTICAINE] | 17.1% | 62.2% | – | –
21 | CCN(CC)CCNC(=O)c1ccc(N=[N+]=[N-])cc1 | 13.4% | 56.1% | 65 µM | –
22 | C[C@]12CC[C@@H]3c4ccc(O)cc4CC[C@H]3[C@@H]1CC[C@@H]2O | 17.8% | 53.3% | – | –
23 | CC(C)CNCCOC(=O)c1ccc(N)cc1 [BUTETHAMINE] | 12.3% | 63.2% | 55 µM | –
24 | CCCCOc1ccc(OCCCN2CCOCC2)cc1 [PRAMOXINE] | 29.7% | 86.3% | 21.2 µM | –

Row | SMILES | inhibition [1] | inhibition [2] | IC50 [3] | inhibition [4]
25 | COC(=O)[C@H]1[C@@H](OC(=O)c2ccccc2)C[C@@H]2CC[C@H]1N2C [COCAINE] | 19.5% | 63.2% | 49 µM | –
26 | CC(C)NCC(O)c1ccc(Cl)c(Cl)c1 (stereo not given) [DICHLOROISOPROTERENOL] | 53% | – | < 10 µM | –
27 | Nc1ccncc1 | 1.2% | 3.8% | – | –
28 | CC(C)NC[C@H](O)COc1cccc2ccccc12 [LEVOPROPRANOLOL] | 42.6% | – | 13 µM | –
29 | CN(C)CCCN1c2ccccc2[S+]([O-])c2ccc(Cl)cc21 (stereo not given) | 18% | 69.1% | – | –
30 | Cc1cccc(C)c1NC(=O)C1CCCCN1C (stereo not given) | 5.3% | 29.3% | – | –
31 | CN(C)CCC(c1ccc(Cl)cc1)c1ccccn1 (stereo not given) [CHLORPHENIRAMINE] | 49.7% | – | 10 µM | –
32 | CCCOc1ccc(C(=O)OCCN(CC)CC)cc1N [PROPARACAINE] | 79.9% | – | 1.9 µM | –
33 | COC(=O)[C@H]1[C@H]2C[C@@H]3c4[nH]c5cc(OC)ccc5c4CCN3C[C@H]2C[C@@H](OC(=O)c2cc(OC)c(OC)c(OC)c2)[C@@H]1OC [RESERPINE] | 100% | – | 1.6 µM | –
34 | Cc1ccc(OCC(O)C(C)NC(C)C)c2c1CCC2 (stereo not given) [ZENIDOLOL] | 64.2% | – | < 10 µM | –
35 | OCCOCCN1CCN(C(c2ccccc2)c2ccc(Cl)cc2)CC1 (stereo not given) [HYDROXYZINE] | 73.9% | – | < 10 µM | –
36 | c1ccc2c(c1)OCC(CN1CCCCC1)O2 (stereo not given) [PIPEROXAN] | – | 58.8% | 61 µM | –
37 | Cl.NCCCCCCNS(=O)(=O)c1cccc2ccccc12 | 33.3% | – | 22 µM | –
38 | COc1cc2c(cc1OC)C1CC(=O)C(CC(C)C)CN1CC2 (stereo not given) [TETRABENAZINE] | 7% | 55% | 85 µM | –
39 | OC(c1ccccc1)(c1ccccc1)C1CCNCC1 [AZACYCLONOL] | 43.2% | – | 14 µM | –
40 | COc1cc(C(=O)OCCCN(C)CCN(C)CCCOC(=O)c2cc(OC)c(OC)c(OC)c2)cc(OC)c1OC [HEXOBENDINE] | 77.2% | – | 1.4 µM | –
41 | COC(=O)[C@@H]1[C@H]2C[C@H]3c4[nH]c5ccccc5c4CCN3C[C@@H]2CC[C@@H]1O [YOHIMBINE] | 25.6% | – | 33 µM | –
42 | C(=C\c1ccccc1)/CN1CCN(C(c2ccccc2)c2ccccc2)CC1 [CINNARIZINE] | – | – | – | 94.6%
43 | Cl.NCCCCCCNS(=O)(=O)c1cccc2c(Cl)cccc12 [N-AMINOHEXYL-5-CHLORO-1-NAPTHALENESULFONAMIDE HYDROCHLORIDE] | 46.8% | – | 12 µM | –
44 | CC(C)COCC(CN(Cc1ccccc1)c1ccccc1)N1CCCC1 (stereo not given) [BEPRIDIL] | 96.2% | – | 0.84 µM | –
45 | CCN(CC)CCNC(=O)c1ccc(N)cc1 | 7.8% | 22.5% | – | –
46 | C=C(C)[C@@H]1[C@H]2OC(=O)[C@@H]1[C@]1(O)C[C@H]3OC34C(=O)O[C@H]2[C@@]41C.CC(C)(O)[C@@H]1[C@H]2OC(=O)[C@@H]1[C@]1(O)C[C@H]3OC34C(=O)O[C@H]2[C@@]41C (stereo not given in full) [PICROTOXIN] | 22.7% | – | 700 µM | –
47 | CN(C)C(=O)C(CCN1CCC(O)(c2ccc(Cl)c(C(F)(F)F)c2)CC1)(c1ccccc1)c1ccccc1 [FLUPERAMIDE] | 100% | – | 0.28 µM | –
48 | CNCCCC1c2ccccc2C=Cc2ccccc21 [PROTRIPTYLINE] | 70.3% | – | < 10 µM | –

Row | SMILES | inhibition [1] | inhibition [2] | IC50 [3] | inhibition [4]
49 | C[N+](C)(CC(=O)Nc1ccccc1)CC(=O)Nc1ccccc1.[Cl-] [CARCAINIUM CHLORIDE] | 71.6% | – | 3.9 µM | –
50 | Nc1nc(Cl)nc2c1ncn2[C@@H]1O[C@H](CO)[C@@H](O)[C@H]1O | 1.3% | 3.5% | – | –
51 | CN1CCN(CCCN2c3ccccc3Sc3ccc(C(F)(F)F)cc32)CC1 [TRIFLUOPERAZINE] | 79.8% | – | 5 µM | –
52 | C[N+](C)(C)CCOC(c1ccccc1)c1ccccc1.[I-] | 69% | – | 64 µM | –
53 | CCCCC1=C(N(C)C)c2cc3c(cc2C1)OCO3 | 45% | – | 12.5 µM | –
54 | COC(=O)C1=C(C)NC(C)=C(C(=O)OCC(C)C)C1c1ccccc1[N+](=O)[O-] (stereo not given) [NISOLDIPINE] | 25.9% | – | 26 µM | –
55 | CCN(CC)CCCCCCCCOC(=O)c1cc(C)c(C)c(C)c1 | 3.4% | 21.6% | – | –
56 | OC(CCN1CCCCC1)(c1ccccc1)C1CC2C=CC1C2 (stereo not given) [BIPERIDEN] | 62.9% | – | < 10 µM | –
57 | CCCCOc1cc(C(=O)OCCN(CC)CC)ccc1N [BENOXINATE] | 73.4% | – | 2.9 µM | –
58 | COc1ccc2c(c1)c(CC(=O)O)c(C)n2C(=O)c1ccc(Cl)cc1 | 3.3% | 11.2% | – | –
59 | N=C1CCCCCCCCCCCN1C1CCCC1c1ccccc1 (stereo not given) | – | 100% | 0.8 µM | –
60 | CSc1ccc2c(c1)N(CCC1CCCCN1C)c1ccccc1S2 (stereo not given) [THIORIDAZINE] | 63.5% | – | 6.5 µM | –
61 | CCCCc1cc2ccccc2c(OCCN(C)C)n1 [DIMETHISOQUIN] | 73.4% | – | 3.4 µM | –
62 | CC[C@@H]1CN2CC[C@@H]1C[C@H]2[C@H](O)c1ccnc2ccc(OCCC(C)C)cc12 | 95.7% | – | 0.74 µM | –
63 | CCN(CC)CCOC(=O)c1ccc(N)cc1 [PROCAINE] | 47.3% | – | 110 µM | –
64 | CC1CCCCN1CCCOC(=O)c1ccc(OC2CCCCC2)cc1 (stereo not given) [CYCLOMETHYCAINE] | 81.9% | – | 2 µM | –
65 | Cc1ccc(N(CC2=NCCN2)c2cccc(O)c2)cc1 [PHENTOLAMINE] | 54.6% | – | 8.4 µM | –
66 | COc1ccc(Cc2nccc3cc(OC)c(OC)cc23)cc1OC | 11% | 56% | – | –
67 | CCOC(=O)c1ccc(N)cc1 [BENZOCAINE] | 5.1% | 0% | 910 µM | –
68 | O=C(Nc1ccccc1)OCC(CN1CCCCC1)OC(=O)Nc1ccccc1 (stereo not given) [DIPERODON] | 87.8% | – | 1.3 µM | –
69 | CC(C)NCC(O)c1ccc(NS(C)(=O)=O)cc1 (stereo not given) | – | 4.6% | – | –
70 | CCCC[N+]1(C)CCCCC1C(=O)Nc1c(C)cccc1C.[I-] (stereo not given) | 64.5% | – | 4.8 µM | –
71 | Cn1c(=O)c2c(ncn2C)n(C)c1=O [CAFFEINE] | 9.7% | – | 660 µM | –
